We go through four substances from patent US10220069B2, “Compositions and methods for treating diabetes” (THE JOHNS HOPKINS UNIVERSITY, priority 2014, dated 2019).

Where no end group is shown, it is not given here.

Test [1] addresses T1, GPR54 (Mus musculus, UniProt Q91V45).
T1 construct: Mouse brain, mouse islets, insulinoma cells, and human islets express Kiss1R; from tissue; host or cells: isolated mouse pancreatic islets (WT / Kiss1Rfl/fl, C57Bl/6 background)
Nature of the test: Glucose tolerance in db/db diabetic mice treated with K234. Type of test: in vivo. An excerpt: (§1) Accordingly, based on the above outlined considerations on β-cell dysfunction and hyperglucagonemia, we reasoned that glucagon receptor-mediated signaling in the liver is required to initiate β-cell dysfunction and to impair glucose-stimulated insulin secretion. We therefore inducibly disinhibited cAMP-PKA signaling in vivo in adult mouse liver by ablating hepatic protein kinase A regulatory subunit 1A (prkar1a) by adenovirus mediated hepatic CRE recombinase transduction in floxed prkar1a mice (L-Δprkar1a mice) 14 (FIG. 22A). Upregulation of hepatic cAMP-PKA signaling within 3 days stimulated hepatic gluconeogenesis causing increase in fasting glucose levels and insufficient insulin secretion to correct glycemia. Conversely, identical baseline fasting glycemia achieved in mice by continuous exogenous glucose infusion for 3 days 15 (D-glucose mice) was associated with increased insulin secretion and relatively mild impairment of glucose tolerance despite continued exogenous glucose infusions (FIG. 22B). Differential hepatic gene expression analysis between these two mouse models identified the gene encoding the secreted neuropeptide kisspeptin-1 (Kiss1) to be markedly elevated (8× on mRNA array, 15× on qRT-PCR) in L-Δprkar1a but not in D-glucose mice (FIG. 22C). […] The kisspeptin receptor Gpr54 expression was detected at significant levels in pancreatic islets (FIG. 26). […]

Test [2] has as its target T1, GPR54. The experiment in a line: GSIS from WT islets exposed to K10 or diabetic mouse serum with K234. Type of test: cell-based.
Text: as §1

For test [3] the following is noted: intravenous bolus, circulating kisspeptin not measured; cited from earlier work.
Test [4] relates to mouse Kiss1 promoter. Nature of the test: Kiss1 promoter luciferase reporter in H2.35 hepatoma cells. Type of test: cell-based. Conditions: 1 kb mouse Kiss1 promoter. How it is done: Cell Culture Studies. Mouse primary hepatocytes were isolated and cultured as described (He et al., 2009). H2.35 hepatoma cell line was cultured and transfected as described (He et al., 2009). 1 kb of the 5' untranslated region of the mouse Kiss1 gene were cloned by PCR into pGL4. The CRE half sites ([…]) within the promoter region were mutated by site directed mutagenesis to (TATGT). Luciferase activity was measured in cell lysates using a luminometer (Berthold) after treatment each for 2 hours with forskolin/IBMX (100 μM each) or glucagon (200 pg/ml) or/and insulin (2000 pg/ml). Dominant-negative A-CREB (Ahn et al., 1998) and WT CREB were from Addgene. Constitutively active CREB […] (Du et al., 2000) was generated by site directed mutagenesis of WT CREB. […] The mouse Kiss1 promoter contains two putative functional cAMP response element (CRE) half-sites (TGACT) (Zhang et al., 2005) located at _127 and _758 bp upstream of the Kiss1 transcription start site. Mutation of either of the CRE half-sites decreased the transcriptional responses to glucagon or to fsk/IBMX, and combined mutation of both CRE half-sites further decreased the responses (FIG. 9A).

The target in test [5] is T2, Gcgr (Mus musculus, UniProt Q61606).
T2 construct: endogenous in cells; host or cells: live mice (WT, Gcgrfl/fl, HFD-fed C57Bl/6, Lepr db/db); hepatic receptor
The experiment in a line: Intraperitoneal glucagon: hepatic kisspeptin1 production. Type of test: in vivo. The protocol:
(§2) Intraperitoneal glucose tolerance (ipGTT) and insulin tolerance (ipITT) tests were performed according to standard protocols (Song et al., 2013; Song et al., 2011). After 9 am-3 pm fasting, animals were administered 20% D-glucose (via ip injection), insulin 0.5 U/kg i.p. […] The glucagon receptor antagonist GAI (N-(3-Cyano-6-(1,1-dimethylpropyl)-4,5,6,7-tetrahydro-1-benzothien-2-yl)-2-ethylbutanamide (Qureshi et al., 2004) and its non-active analogue were administered (50 mg/kg i.p. in DMSO) in HFD fed and Lepr^db/db mice 60 min before i. GTT. Intraperitoneal pyruvate converstion (1 g/kg i.p.) test (ipPCT) in ΔL-Prkar1a mice was performed in the fed state (9 am) to avoid any confounding effects of fasting-induced elevated endogenous glucagon levels. Tail-vein blood was collected at the indicated times in figures for glucose and insulin measurements. Serum insulin was measured using mouse magnetic bead panel (Millipore, Luminex). Plasma for glucagon measurements was drawn from mice in the fed state at 9 am, unless otherwise noted for fasting studies. Plasma glucagon (Alpco) and kisspeptin1 (USCN Life Sciences Inc. E92559Ra) were measured by ELISA according to manufacturer's instructions including dilution of samples.
(§3) Kiss1 transcript was also detectable by qRT-PCR at low levels in spleen, kidney, skeletal muscle, and epididymal fat tissue.

In test [6] the test system is Gcgr. Described as above. The class given is in vivo, mouse. Conditions: mice lacking liver Gcgr, ip glucagon. The protocol: as §2, §3
In test [7] the test system is Kiss1. The experiment in a line: Kiss1 expression in primary mouse hepatocytes. Type of test: cell-based. Conditions: for Kiss1 expression / Pck1 expression: primary mouse hepatocytes, glucagon 200 pg/ml, insulin 2000 pg/ml; for Kiss1 expression: 2 hr. How it is done:
Cell Culture Studies. Mouse primary hepatocytes were isolated and cultured as described (He et al., 2009). H2.35 hepatoma cell line was cultured and transfected as described (He et al., 2009). 1 kb of the 5' untranslated region of the mouse Kiss1 gene were cloned by PCR into pGL4. The CRE half sites (TGCAT) within the promoter region were mutated by site directed mutagenesis to (TATGT). Luciferase activity was measured in cell lysates using a luminometer (Berthold) after treatment each for 2 hours with forskolin/IBMX (100 μM each) or glucagon (200 pg/ml) or/and insulin (2000 pg/ml). Dominant-negative A-CREB (Ahn et al., 1998) and WT CREB were from Addgene. Constitutively active CREB […] (Du et al., 2000) was generated by site directed mutagenesis of WT CREB. Glucagon Stimulates Hepatic Kiss1 Expression Via Gcgr and cAMP-PKA-CREB Signaling. We next examined whether glucagon directly stimulates hepatic kisspeptin1 production. Glucagon treatment (200 pg/ml) of primary mouse hepatocytes stimulated within 2 hr Kiss1 expression and protein (FIGS. 2A-2C).

In test [8] the test system is Kiss1. Nature of the test: ip insulin in L-Δprkar1a mice: hepatic Kiss1. The class given is in vivo, mouse. The note with it: 1 IU/kg ip, within 60 min. The protocol: Consistent with these observations of insulin counterregulation of PKA-mediated Kiss1 stimulation, in vivo ip insulin (1 IU/kg) administration in L-Δprkar1a mice to supplement relatively deficient endogenous serum insulin concentrations and to achieve blood glucose reduction, decreased hepatic Kiss1 mRNA and protein levels within 60 min (FIGS. 8I-8K).

T1 sequence (Q91V45 whole entry): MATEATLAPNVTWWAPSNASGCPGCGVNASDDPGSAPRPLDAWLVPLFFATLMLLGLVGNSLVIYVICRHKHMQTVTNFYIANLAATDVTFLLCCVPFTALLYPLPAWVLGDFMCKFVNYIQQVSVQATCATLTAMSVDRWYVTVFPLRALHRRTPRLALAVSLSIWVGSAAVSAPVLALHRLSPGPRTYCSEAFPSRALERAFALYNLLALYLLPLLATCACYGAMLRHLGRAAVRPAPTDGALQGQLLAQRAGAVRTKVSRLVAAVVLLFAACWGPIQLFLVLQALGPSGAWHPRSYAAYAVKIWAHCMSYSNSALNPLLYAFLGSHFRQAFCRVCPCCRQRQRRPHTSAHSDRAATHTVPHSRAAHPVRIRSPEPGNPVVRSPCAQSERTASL
T2 sequence (Q61606 27-485): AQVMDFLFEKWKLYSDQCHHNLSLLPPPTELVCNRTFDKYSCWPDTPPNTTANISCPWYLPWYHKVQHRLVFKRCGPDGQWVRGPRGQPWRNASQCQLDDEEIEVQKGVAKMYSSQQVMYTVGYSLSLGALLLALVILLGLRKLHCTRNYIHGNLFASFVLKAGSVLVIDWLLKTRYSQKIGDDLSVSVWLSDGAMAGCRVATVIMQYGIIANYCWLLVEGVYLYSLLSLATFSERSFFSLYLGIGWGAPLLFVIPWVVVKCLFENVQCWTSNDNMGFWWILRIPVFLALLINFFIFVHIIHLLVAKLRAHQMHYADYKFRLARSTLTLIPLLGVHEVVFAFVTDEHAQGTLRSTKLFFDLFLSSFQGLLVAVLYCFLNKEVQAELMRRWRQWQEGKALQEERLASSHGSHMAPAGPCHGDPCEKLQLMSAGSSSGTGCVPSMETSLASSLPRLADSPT

“K234: GPR54 receptor antagonist, Kisspeptin derivative (SEQ ID NOS:36-37; Roseweir et al. 2009)”: in test [1], the glucose tolerance result is reported as “dramatic improvement in glucose tolerance”. The “impaired GSIS of WT islets exposed to diabetic serum” value in test [2] (10% serum from L-Δprkar1a, db/db and ob/ob mice, co-incubation with K234) was “recovered”. In addition, in test [2] (WT islets, K10 10 nM), the “effects of K10 on islets (FIG. 27)” value is “counteracts effects of k10”.
Take “Tyr-Asn-Trp-Asn-Ser-Phe-Gly-Leu-Arg-Phe-NH2 (YNWNSFGLRF-NH2; listed as Homo sapiens) [K10, 10 amino acid C-terminal kisspeptin fragment, GPR54 agonist]”: the GSIS result in test [3] is on record as “stimulate GSIS”.
Turning to glucagon, in test [4], the “Kiss1 promoter luciferase reporter activity” value was “transcriptional activation”. Also, the “liver Kiss1 transcript and kisspeptin protein in L-ΔInsr mice” value in test [5] (compared to Insrfl/fl mice) is “dramatically increased”. Also, the “hepatic kisspeptin1 production” value in test [5] (mice, 16 mg/kg ip, 30 min after injection, versus PBS) is given as “increased hepatic kisspeptin1 production”. Besides, in test [6], the “kisspeptin production in L-ΔGcgr mice” value was “did not change”. For the same substance, in test [7], the Kiss1 expression result is recorded as “stimulated” and the Pck1 expression result is “also stimulated”.
insulin: the “hepatic Kiss1 mRNA and protein levels” value in test [8] is “decreased”. Moreover, the “glucagon stimulated Kiss1 and Pck1 expression” value in test [7] (mouse hepatocytes, insulin plus glucagon) was “dampened”. In test [7], the Kiss1 expression entry is given as “reduced basal Kiss1 expression” and the Pck1 expression entry was “also reduced Pck1 expression”.
